Source: ChEMBL document CHEMBL1122776, “Synthesis and antitumor activity of some aromatic seleno lactones” (J Med Chem, 1984)

Columns and labels:
Format in all cases: cell-based
Details in all cases: read-out: LD50
[1] = In vitro cytotoxic activity against human colon tumor-8r cells in culture and LD50 was reported at the end of incubation period of 72 hours.
[2] = In vitro cytotoxic activity against of human colon tumor-8r cells in culture and LD50 was reported at the end of incubation period of 24 hours.
[3] = In vitro cytotoxic activity against human colon tumor-8r cells in culture and LD50 was reported at the end of incubation period of 48 hours.
[4] = In vitro cytotoxic activity against human colon tumor-8r cells in culture and LD50 was reported at the end of incubation period of 24 hours.
[5] = In vitro cytotoxic activity against of human colon tumor-8r cells in culture and LD50 was reported at the end of incubation period of 72 hours.
[6] = In vitro cytotoxic activity against of human colon tumor-8r cells in culture and LD50 was reported at the end of incubation period of 48 hours.

| Structure (SMILES) | CC50 at 72 h [1] [µM] | CC50 at 24 h [2] [µM] | CC50 at 48 h [3] [µM] | CC50 at 24 h [4] [µM] | CC50 at 72 h [5] [µM] | CC50 at 48 h [6] [µM] |
| --- | --- | --- | --- | --- | --- | --- |
| CC(=O)Oc1cccc2c1CC(C[Se]c1ccccc1)C(=O)O2 (centres undefined) | 180 | 290 | 240 | – | – | – |
| CCCCCCCCCC(=O)Oc1cccc2c1CC(C[Se]c1ccccc1)C(=O)O2 (centres undefined) | 140 | – | 150 | 230 | – | – |
| CCC(=O)Oc1cccc2c1CC(C[Se]c1ccccc1)C(=O)O2 (centres undefined) | – | – | – | 310 | 210 | 250 |
| O=C1Oc2cccc(OC3CCCCO3)c2CC1C[Se]c1ccccc1 (centres undefined) | 150 | – | 190 | 260 | – | – |
| CCCCCCCC(=O)Oc1cccc2c1CC(C[Se]c1ccccc1)C(=O)O2 (centres undefined) | – | 300 | – | – | 180 | 230 |
| O=C1Oc2cccc(O)c2CC1C[Se]c1ccccc1 (centres undefined) | 230 | – | 280 | 330 | – | – |
| CCCC(=O)Oc1cccc2c1CC(C[Se]c1ccccc1)C(=O)O2 (centres undefined) | 320 | – | 270 | 370 | – | – |
| Sc1ncnc2nc[nH]c12 [MERCAPTOPURINE ANHYDROUS] | 280 | – | 350 | 760 | – | – |
